Assay results taken from patent US12599672B2, “KRAS proteolysis targeting chimeras” (PAQ Therapeutics Inc., priority 2023, dated 2026).

What was measured:
Assay type in all cases: cell-based
[1] = target: T1, KRAS G12D (Homo sapiens, UniProt P01116, G12D); assay: KRAS G12D HiBit assay; conditions: AsPc-1-KRAS (G12D)-HiBit-KI cell, compound treatment for 24 hours, absolute DC50; class symbols
T1 construct: AsPc-1-KRAS (G12D)-HiBit-KI cell (Pharmaron); host or cells: AsPc-1-KRAS (G12D)-HiBit-KI cells (HiBiT knock-in at the endogenous KRAS locus)
T1 sequence (P01116 1-188 isoform P01116-2 G12D): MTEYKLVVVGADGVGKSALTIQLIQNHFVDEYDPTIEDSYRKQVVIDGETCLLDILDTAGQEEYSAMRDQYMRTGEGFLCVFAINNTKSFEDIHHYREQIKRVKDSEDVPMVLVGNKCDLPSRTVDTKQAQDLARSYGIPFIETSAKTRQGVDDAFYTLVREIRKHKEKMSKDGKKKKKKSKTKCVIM
Procedure, shortened: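 HiBiT luminescence, detected by adding lytic buffer, substrate and LgBiT protein, served as the KRAS G12D read-out. Compounds, serially diluted 3-fold over 10 points from 0.3 mM DMSO stock, were on cells for 24 h; percent inhibition normalized to cells given 0.1% DMSO only.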

[2] = target: T2, KRAS G12V (Homo sapiens, UniProt P01116, G12V); assay: KRAS G12V HiBit assay; conditions: SW620-KRAS (G12V)-HiBit-KI cells, compound treatment for 24 hours, class symbols
T2 construct: SW620-KRAS (G12V)-HiBit-KI cell (Pharmaron); host or cells: SW620-KRAS (G12V)-HiBit-KI cells (HiBiT knock-in at the endogenous KRAS locus)
T2 sequence (P01116 1-188 isoform P01116-2 G12V): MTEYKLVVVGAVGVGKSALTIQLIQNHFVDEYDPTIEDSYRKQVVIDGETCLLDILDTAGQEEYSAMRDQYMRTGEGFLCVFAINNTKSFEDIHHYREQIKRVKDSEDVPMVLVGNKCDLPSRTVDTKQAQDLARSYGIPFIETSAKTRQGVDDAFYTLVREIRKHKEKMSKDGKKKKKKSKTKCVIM
Procedure, shortened: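 Luminescence from lytic Nano-Glo HiBiT detection with LgBiT read KRAS G12V levels after 24 h compound exposure. Dilutions were 10-point, 3-fold, from a 0.3 mM DMSO stock. Degradation activity was normalised to cells given 0.1% DMSO alone.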

[3] = target: T3, KRAS (Homo sapiens, UniProt P01116); assay: KRASamp MSD assay; conditions: KE39 (KRAS amplified) cells, treated with test compounds for 24 hr, MSD readout of KRAS degradation
T3 construct: endogenous in cells; host or cells: KE39 (KRAS amplified) cells
T3 sequence (P01116 1-188 isoform P01116-2): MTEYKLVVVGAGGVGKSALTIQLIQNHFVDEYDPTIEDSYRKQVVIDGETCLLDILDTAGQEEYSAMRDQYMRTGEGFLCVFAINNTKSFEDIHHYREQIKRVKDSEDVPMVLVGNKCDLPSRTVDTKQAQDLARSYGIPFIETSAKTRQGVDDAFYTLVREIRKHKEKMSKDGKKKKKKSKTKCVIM
Procedure, shortened: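 Degradation DC50 derived by curve fitting, with KRAS levels quantified by MSD electrochemiluminescence (capture/detection antibodies, recombinant WT KRAS standard). Lysates prepared from KE39 cells (KRAS amplified) exposed to test compounds for 24 hr.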

Question: What does the source list for C#Cc1c(F)ccc2cc(O)cc(-c3ncc4c(N5CCC[C@@](C)(O)C5)nc(OC[C@@]56CCCN5[C@H](COC(=O)N5CCC(CN7CCC(c8cc9c(cc8F)n(C8CCC(=O)NC8=O)c(=O)n9C)CC7)CC5)CC6)nc4c3F)c12 (stereo partly drawn) [Compound 407, ((3S,7aS)-7a-(((7-(8-ethynyl-7-fluoro-3-hydroxynaphthalen-1-yl)-8-fluoro-4-((R)-3-hydroxy-3-methylpiperidin-1-yl)pyrido[4,3-d]pyrimidin-2-yl)oxy)methyl)hexahydro-1H-pyrrolizin-3-yl)methyl 4-((4-(1-(2,6-dioxopiperidin-3-yl)-6-fluoro-3-methyl-2-oxo-2,3-dihydro-1H-benzo[d]imidazol-5-yl)piperidin-1-yl)methyl)piperidine-1-carboxylate]?
Answer: DC50 [1]: < 100 nM; DC50 [2]: < 10 nM; DC50 [3]: < 1 nM

Question: Which results are given for Cn1c(=O)n(C2CCC(=O)NC2=O)c2ccc(C3CCN(CC4CCN(C(=O)OC[C@@H]5CC[C@]6(COc7nc(N8CCC[C@@](C)(O)C8)c8cnc(-c9cc(O)cc%10ccc(F)c(Cl)c9%10)c(F)c8n7)CCCN56)CC4)CC3)cc21 (stereo partly drawn) [Compound 409, ((3S,7aS)-7a-(((7-(8-chloro-7-fluoro-3-hydroxynaphthalen-1-yl)-8-fluoro-4-((R)-3-hydroxy-3-methylpiperidin-1-yl)pyrido[4,3-d]pyrimidin-2-yl)oxy)methyl)hexahydro-1H-pyrrolizin-3-yl)methyl 4-((4-(1-(2,6-dioxopiperidin-3-yl)-3-methyl-2-oxo-2,3-dihydro-1H-benzo[d]imidazol-5-yl)piperidin-1-yl)methyl)piperidine-1-carboxylate]?
Answer: DC50 [1]: < 100 nM; DC50 [2]: < 10 nM; DC50 [3]: < 1 nM

Question: Cn1c(=O)n(C2CCC(=O)NC2=O)c2ccc(C3CCN(CC4CCN(C(=O)OC[C@@H]5CC[C@]6(COc7nc(N8CCC[C@@](C)(O)C8)c8cnc(-c9cc(O)cc%10ccc(F)c(F)c9%10)c(F)c8n7)CCCN56)CC4)CC3)cc21 (stereo partly drawn) [Compound 410, ((3S,7aS)-7a-(((7-(7,8-difluoro-3-hydroxynaphthalen-1-yl)-8-fluoro-4-((R)-3-hydroxy-3-methylpiperidin-1-yl)pyrido[4,3-d]pyrimidin-2-yl)oxy)methyl)hexahydro-1H-pyrrolizin-3-yl)methyl 4-((4-(1-(2,6-dioxopiperidin-3-yl)-3-methyl-2-oxo-2,3-dihydro-1H-benzo[d]imidazol-5-yl)piperidin-1-yl)methyl)piperidine-1-carboxylate] was tested. Which DC50 [1] did it give?
Answer: < 100 nM

Question: What about the DC50 [2] of the same molecule?
Answer: < 10 nM

Question: What about the DC50 [3] of the same molecule?
Answer: < 1 nM

Question: Which DC50 [1] does the source give for C#Cc1c(F)ccc2cc(O)cc(-c3ncc4c(N5CCC[C@@](C)(O)C5)nc(OC[C@@]56CCCN5[C@H](COC(=O)N5CCC7(CCC(N8CCC(c9ccc%10c(c9)n(C)c(=O)n%10C9CCC(=O)NC9=O)CC8)CC7)CC5)CC6)nc4c3F)c12 (stereo partly drawn) [Compound 413, ((3S,7aS)-7a-(((7-(8-ethynyl-7-fluoro-3-hydroxynaphthalen-1-yl)-8-fluoro-4-((R)-3-hydroxy-3-methylpiperidin-1-yl)pyrido[4,3-d]pyrimidin-2-yl)oxy)methyl)hexahydro-1H-pyrrolizin-3-yl)methyl 9-(4-(1-(2,6-dioxopiperidin-3-yl)-3-methyl-2-oxo-2,3-dihydro-1H-benzo[d]imidazol-5-yl)piperidin-1-yl)-3-azaspiro[5.5]undecane-3-carboxylate] here?
Answer: < 100 nM

Question: What about the DC50 [2] of the same molecule?
Answer: < 10 nM

Question: And the DC50 [3]?
Answer: < 1 nM

Question: With C#Cc1c(F)ccc2cc(O)cc(-c3ncc4c(N5CCC[C@@](C)(O)C5)nc(OC[C@@]56CCCN5[C@H](COC(=O)N5CCC(N7CC(N8CCC(c9ccc%10c(c9)n(C)c(=O)n%10C9CCC(=O)NC9=O)CC8)C7)CC5)CC6)nc4c3F)c12 (stereo partly drawn) [Compound 414, ((3S,7aS)-7a-(((7-(8-ethynyl-7-fluoro-3-hydroxynaphthalen-1-yl)-8-fluoro-4-((R)-3-hydroxy-3-methylpiperidin-1-yl)pyrido[4,3-d]pyrimidin-2-yl)oxy)methyl)hexahydro-1H-pyrrolizin-3-yl)methyl 4-(3-(4-(1-(2,6-dioxopiperidin-3-yl)-3-methyl-2-oxo-2,3-dihydro-1H-benzo[d]imidazol-5-yl)piperidin-1-yl)azetidin-1-yl)piperidine-1-carboxylate] as the molecule, how does the DC50 [1] read?
Answer: < 100 nM

Question: And the DC50 [2]?
Answer: 10 to 100 nM

Question: And the DC50 [3]?
Answer: ≥ 10 nM

Question: For C#Cc1c(F)ccc2cc(O)cc(-c3ncc4c(N5CCC[C@@](C)(O)C5)nc(OC[C@@]56CCCN5[C@H](COC(=O)N5CCC7(CCC7N7CCC(c8ccc9c(c8)n(C)c(=O)n9C8CCC(=O)NC8=O)CC7)CC5)CC6)nc4c3F)c12 (stereo partly drawn) [Compound 415, ((3S,7aS)-7a-(((7-(8-ethynyl-7-fluoro-3-hydroxynaphthalen-1-yl)-8-fluoro-4-((R)-3-hydroxy-3-methylpiperidin-1-yl)pyrido[4,3-d]pyrimidin-2-yl)oxy)methyl)hexahydro-1H-pyrrolizin-3-yl)methyl 1-(4-(1-(2,6-dioxopiperidin-3-yl)-3-methyl-2-oxo-2,3-dihydro-1H-benzo[d]imidazol-5-yl)piperidin-1-yl)-7-azaspiro[3.5]nonane-7-carboxylate], which DC50 [1] is on record?
Answer: < 100 nM

Question: What about the DC50 [2] of the same molecule?
Answer: > 100 nM

Question: What about the DC50 [3] of the same molecule?
Answer: ≥ 10 nM

Question: With CCc1c(F)ccc2cc(O)cc(-c3ncc4c(N5CCC[C@@](C)(O)C5)nc(OC[C@@]56CCCN5[C@H](COC(=O)N5CC7(CC(N8CCC(c9ccc%10c(c9)n(C)c(=O)n%10C9CCC(=O)NC9=O)CC8)C7)C5)CC6)nc4c3F)c12 (stereo partly drawn) [Compound 416, ((3S,7aS)-7a-(((7-(8-ethyl-7-fluoro-3-hydroxynaphthalen-1-yl)-8-fluoro-4-((R)-3-hydroxy-3-methylpiperidin-1-yl)pyrido[4,3-d]pyrimidin-2-yl)oxy)methyl)hexahydro-1H-pyrrolizin-3-yl)methyl 6-(4-(1-(2,6-dioxopiperidin-3-yl)-3-methyl-2-oxo-2,3-dihydro-1H-benzo[d]imidazol-5-yl)piperidin-1-yl)-2-azaspiro[3.3]heptane-2-carboxylate] as the molecule, how does the DC50 [1] read?
Answer: < 100 nM

Question: What about the DC50 [2] of the same molecule?
Answer: < 10 nM

Question: What about the DC50 [3] of the same molecule?
Answer: < 1 nM

Question: With CCc1c(F)ccc2cc(O)cc(-c3ncc4c(N5CCC[C@@](C)(O)C5)nc(OC[C@@]56CCCN5[C@H](COC(=O)N5CCC7(CC5)CC(CN5CCC(c8ccc9c(c8)n(C)c(=O)n9C8CCC(=O)NC8=O)CC5)C7)CC6)nc4c3F)c12 (stereo partly drawn) [Compound 417, ((3S,7aS)-7a-(((7-(8-ethyl-7-fluoro-3-hydroxynaphthalen-1-yl)-8-fluoro-4-((R)-3-hydroxy-3-methylpiperidin-1-yl)pyrido[4,3-d]pyrimidin-2-yl)oxy)methyl)hexahydro-1H-pyrrolizin-3-yl)methyl 2-((4-(1-(2,6-dioxopiperidin-3-yl)-3-methyl-2-oxo-2,3-dihydro-1H-benzo[d]imidazol-5-yl)piperidin-1-yl)methyl)-7-azaspiro[3.5]nonane-7-carboxylate] as the molecule, how does the DC50 [1] read?
Answer: < 100 nM

Question: And the DC50 [2]?
Answer: < 10 nM

Question: And the DC50 [3]?
Answer: < 1 nM
